Blank lines part the entries; values can stand above or below the molecule they belong to.
How the values were obtained:
Format in all cases: biochemical
[1] = target: T1, PvPAT1 (Pistacia vera, UniProt Z9K6G7Q8L5); assay: coupled pyrophosphate release to NADH oxidation, […] nm; Michaelis-Menten fit; conditions: 1 mM PR-PPi, 45 mM imidazole HCl pH 7.4, 30 °C
T1 construct: codon-optimized gene in pET28a, His-tagged, E. coli BL21 (DE3), Ni-NTA
T1 sequence (Z9K6G7Q8L5 1-311): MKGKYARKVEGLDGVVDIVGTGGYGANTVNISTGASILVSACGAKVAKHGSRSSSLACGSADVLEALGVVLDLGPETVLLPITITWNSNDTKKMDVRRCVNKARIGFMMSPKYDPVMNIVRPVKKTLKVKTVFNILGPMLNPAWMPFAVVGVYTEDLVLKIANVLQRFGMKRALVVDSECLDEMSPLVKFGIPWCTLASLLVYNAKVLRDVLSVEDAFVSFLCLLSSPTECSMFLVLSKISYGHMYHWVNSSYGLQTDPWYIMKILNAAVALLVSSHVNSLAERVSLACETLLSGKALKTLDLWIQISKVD

[2] = target: T2, SmPAT1 (Selaginella moellendorffii, UniProt Z9CFY1Y489); assay: EnzChek pyrophosphate assay (PNP-coupled, […] nm)
T2 construct: gene PAT1; codon-optimized gene in pET28a, His-tagged, E. coli BL21 (DE3), Ni-NTA

[3] = target: T3, PpPAT1 (Physcomitrium patens, UniProt A9T6I7); assay: EnzChek pyrophosphate assay (PNP-coupled, […] nm)
T3 construct: gene LOC112294424; codon-optimized gene in pET28a, His-tagged, E. coli BL21 (DE3), Ni-NTA

[4] = target: T4, AtPAT1 (Arabidopsis thaliana, UniProt Q02166); assay: coupled pyrophosphate release to NADH oxidation, […] nm; substrate inhibition fit; conditions: 1 mM PR-PPi, 45 mM imidazole HCl pH 7.4, 30 °C
T4 construct: gene PAT1; codon-optimized gene in pET28a, His-tagged, E. coli BL21 (DE3), Ni-NTA

[5] = target: T1, PvPAT1; assay: as above; conditions: 1 mM PR-PPi, 45 mM imidazole HCl pH 7.4, 30 °C
[6] = target: T5, CsPAT1 (Citrus sinensis, UniProt A0ACB8LSF1); assay: as above; conditions: 1 mM PR-PPi, 45 mM imidazole HCl pH 7.4, 30 °C
T5 construct: gene KPL71_006645; codon-optimized gene in pET28a, His-tagged, E. coli BL21 (DE3), Ni-NTA

[7] = target: T2, SmPAT1; assay: as above; conditions: 1 mM PR-PPi, 45 mM imidazole HCl pH 7.4, 30 °C
[8] = target: T3, PpPAT1; assay: as above; conditions: 1 mM PR-PPi, 45 mM imidazole HCl pH 7.4, 30 °C
[9] = target: T6, JrPAT1 (Juglans regia, UniProt A0A6P9ES87); assay: as above; conditions: 1 mM PR-PPi, 45 mM imidazole HCl pH 7.4, 30 °C
T6 construct: gene LOC109021987; codon-optimized gene in pET28a, His-tagged, E. coli BL21 (DE3), Ni-NTA

Km ([1]; 3-HAA 0-0.5 mM): 50 ± 5.3 µM
SMILES: Nc1c(O)cccc1C(=O)O [3-hydroxyanthranilate]

IC50 [2]: 1980 µM
SMILES: N[C@@H](Cc1ccccc1)C(=O)O [Phe]

SMILES: N[C@@H](Cc1ccc(O)cc1)C(=O)O [Tyr]
IC50 [3]: 1180 µM

SMILES: Nc1ccccc1C(=O)O [anthranilate]
Ki [4]: 4300 ± 400 µM
Ki [5]: 1800 ± 400 µM
Ki [6]: 4100 ± 600 µM
Km ([1]; anthranilate 0-0.75 mM): 32.1 ± 4.7 µM
Ki [7]: 3600 ± 800 µM
Ki [8]: > 5000 µM
Ki [9]: > 5000 µM
